Reference: patent publication US10813913B2, “Small molecules that mimic or antagonize actions of granulocyte colony-stimulating-factor (G-CSF)” (UNIVERSITY OF SOUTH FLORIDA, priority 2016, dated 2020)
Several values for one entry are separate records, joined by “and”; a condition that tells them apart may be missing. Identical values can stand only once. Entries after “also recorded” stand apart in the source; their conditions may differ.

T1: G-CSF receptor expressed on human monocytes (Homo sapiens, UniProt Q99062)
T1 construct: Both cell lines are known to express the G-CSF-R; host or cells: THP-1 (human monocytic cell line), intact cells
T1 sequence (Q99062 25-836): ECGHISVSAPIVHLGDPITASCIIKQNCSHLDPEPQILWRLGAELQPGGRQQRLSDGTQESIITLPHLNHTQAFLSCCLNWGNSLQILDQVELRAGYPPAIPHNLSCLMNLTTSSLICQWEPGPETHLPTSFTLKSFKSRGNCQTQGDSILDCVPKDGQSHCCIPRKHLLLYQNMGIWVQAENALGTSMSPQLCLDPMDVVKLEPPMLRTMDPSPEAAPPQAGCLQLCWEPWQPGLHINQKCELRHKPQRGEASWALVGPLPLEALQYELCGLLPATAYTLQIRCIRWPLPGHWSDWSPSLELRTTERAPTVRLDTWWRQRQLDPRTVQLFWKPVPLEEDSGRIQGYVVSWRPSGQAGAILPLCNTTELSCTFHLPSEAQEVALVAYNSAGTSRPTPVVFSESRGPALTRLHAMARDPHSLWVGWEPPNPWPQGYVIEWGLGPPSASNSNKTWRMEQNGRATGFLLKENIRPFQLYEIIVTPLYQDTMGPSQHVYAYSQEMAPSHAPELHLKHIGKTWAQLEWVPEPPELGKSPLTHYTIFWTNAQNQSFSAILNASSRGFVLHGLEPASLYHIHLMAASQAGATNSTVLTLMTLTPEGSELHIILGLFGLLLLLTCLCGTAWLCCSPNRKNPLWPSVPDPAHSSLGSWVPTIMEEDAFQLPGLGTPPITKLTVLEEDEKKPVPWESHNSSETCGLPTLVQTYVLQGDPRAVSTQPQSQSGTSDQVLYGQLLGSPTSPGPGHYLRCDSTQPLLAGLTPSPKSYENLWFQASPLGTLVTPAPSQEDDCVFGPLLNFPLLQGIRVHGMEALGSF

T2: G-CSF receptor on neuronal (SH-SY5Y) cells (Homo sapiens, UniProt Q99062)
T2 construct: Both cell lines are known to express the G-CSF-R; host or cells: SH-SY5Y (human neuroblastoma cell line, adherent cells), intact cells
T2 sequence (Q99062 25-836): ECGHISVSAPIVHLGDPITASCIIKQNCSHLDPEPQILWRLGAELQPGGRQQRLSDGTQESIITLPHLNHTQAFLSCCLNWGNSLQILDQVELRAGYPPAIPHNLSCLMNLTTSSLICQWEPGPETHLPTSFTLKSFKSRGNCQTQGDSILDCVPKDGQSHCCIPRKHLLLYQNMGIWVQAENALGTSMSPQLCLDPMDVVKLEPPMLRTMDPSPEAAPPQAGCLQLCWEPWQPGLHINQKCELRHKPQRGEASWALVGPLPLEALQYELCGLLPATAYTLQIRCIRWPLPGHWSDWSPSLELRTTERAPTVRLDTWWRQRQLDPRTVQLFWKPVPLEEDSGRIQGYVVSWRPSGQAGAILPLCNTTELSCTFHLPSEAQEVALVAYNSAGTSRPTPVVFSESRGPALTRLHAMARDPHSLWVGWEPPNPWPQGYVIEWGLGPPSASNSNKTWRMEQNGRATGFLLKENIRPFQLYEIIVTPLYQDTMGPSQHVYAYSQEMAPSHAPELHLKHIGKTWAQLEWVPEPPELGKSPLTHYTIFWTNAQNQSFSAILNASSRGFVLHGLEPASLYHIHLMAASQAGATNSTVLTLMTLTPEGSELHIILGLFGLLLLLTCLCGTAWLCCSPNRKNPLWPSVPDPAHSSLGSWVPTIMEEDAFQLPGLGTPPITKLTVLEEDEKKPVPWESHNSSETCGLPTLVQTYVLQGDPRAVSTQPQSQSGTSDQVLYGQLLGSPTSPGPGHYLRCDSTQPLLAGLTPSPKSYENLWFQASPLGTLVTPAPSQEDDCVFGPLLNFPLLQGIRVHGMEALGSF

T3: G-CSF receptor on monocytic (THP-1) cells (Homo sapiens, UniProt Q99062)
T3 construct: Both cell lines are known to express the G-CSF-R; host or cells: THP-1 (human monocytic cell line), intact cells
T3 sequence (Q99062 25-836): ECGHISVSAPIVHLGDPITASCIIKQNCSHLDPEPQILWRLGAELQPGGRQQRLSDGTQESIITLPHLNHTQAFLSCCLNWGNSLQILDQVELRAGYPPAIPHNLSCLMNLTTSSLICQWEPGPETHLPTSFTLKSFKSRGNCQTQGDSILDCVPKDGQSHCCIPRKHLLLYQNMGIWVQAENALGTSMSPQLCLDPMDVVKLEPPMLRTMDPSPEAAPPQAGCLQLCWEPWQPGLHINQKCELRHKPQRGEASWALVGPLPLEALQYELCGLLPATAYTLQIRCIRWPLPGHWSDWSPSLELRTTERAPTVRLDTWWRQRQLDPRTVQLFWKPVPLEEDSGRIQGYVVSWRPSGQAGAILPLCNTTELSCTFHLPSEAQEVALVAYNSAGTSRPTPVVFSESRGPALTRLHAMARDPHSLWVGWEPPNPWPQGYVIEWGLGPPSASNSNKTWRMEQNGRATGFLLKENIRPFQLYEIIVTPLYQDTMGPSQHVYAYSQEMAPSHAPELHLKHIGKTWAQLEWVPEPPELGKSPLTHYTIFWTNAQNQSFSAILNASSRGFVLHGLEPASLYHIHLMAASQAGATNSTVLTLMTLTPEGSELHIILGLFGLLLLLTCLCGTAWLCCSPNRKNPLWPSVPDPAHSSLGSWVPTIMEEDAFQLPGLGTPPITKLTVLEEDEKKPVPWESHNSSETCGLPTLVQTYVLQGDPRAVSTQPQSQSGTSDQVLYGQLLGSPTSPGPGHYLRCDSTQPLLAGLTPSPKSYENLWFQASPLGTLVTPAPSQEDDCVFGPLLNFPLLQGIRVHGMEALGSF


Key:
[1] = molecular target: T1, G-CSF receptor expressed on human monocytes; test: Competition/displacement of [125I]-G-CSF from its receptor on monocytes; type: binding; conditions: monocytic cells
Method: Cells, prepared as described above, were incubated in 180 μL of binding medium containing 0.2% BSA, 5 mM MgSO4 and 50 mM Hepes, pH 7.2 at a concentration of 1.5×10^7 cells/mL and the appropriate concentration of [^125I]-G-CSF. This was followed by addition of increasing concentrations of each study compound (10 to 3000 nM). After 2 hrs of incubation, the amount of bound and free [^125I]-G-CSF was determined, as described above. […] Each concentration was analyzed in triplicate and experiments were repeated three times. These experiments were conducted in human monocytic and neuronal cell lines.
Displacement studies were then conducted for each of the 10 compounds. […] Compounds 6 and 10, which displaced greater than 75% of the ^125I-G-CSF, were further studied for their capacity to mimic or block the intracellular signaling triggered by the natural ligand.

[2] = system: PKCδVIII and Bcl2 expressed in THP-1 monocytic cells; test: Western blot of PKCδVIII and Bcl2 in THP-1 monocytic cells; type: cell-based, human; conditions: for effect on G-CSF-induced Bcl2 expression / effect on G-CSF-induced PKCδVIII expression: THP-1, co-incubation with G-CSF 100 ng/mL; for effect on G-CSF-induced Bcl2 expression / effect on G-CSF-induced PKCδVIII expression / Bcl2 protein expression / PKCδVIII protein expression: 24 h; for Bcl2 protein expression / PKCδVIII protein expression: THP-1, compound alone, three concentrations; for agonist/antagonist profile at the G-CSF receptor: monocytic cell line (THP-1)
Method: (§1) In addition, a set of flasks were co-incubated with the combination of G-CSF and 3 concentrations of test drug. Whole cell lysates ([…]) were separated on 10% polyacrylamide gel electrophoresis-SDS (PAGE-SDS). Proteins were electrophoretically transferred to nitrocellulose membranes, blocked with 5% nonfat milk prepared on Tris buffered saline containing 0.1% Tween 20, washed and incubated with a polyclonal antibody against either Bcl2 (Cell Signaling, Danvers, Mass.) or PKCδVIII-specific polyclonal antibody (Jiang, K., et al. Biochemistry 2008, 47, 787-797). The house keeping gene GAPDH was used as an internal standard. Following incubation with anti-rabbit IgG-HRP, enhanced chemiluminesence (Pierce™, Thermo Scientific, Walthahm, Mass.) was used for detection and the gels were analyzed using UN-SCAN-IT™ software (Silk Scientific, Inc., Orem, Utah).
(§2) Statistical analysis. Densitometric results from Western blots were analyzed with two-tailed t-tests when only two groups were compared. In other analyses where 3 groups were compared, one-way ANOVA followed by t-tests with Dunnett's corrections for multiple comparisons was utilized. All data was presented as mean±SEM. All statistical analysis of data was done via PRISM4 or PRISM5 statistical analysis software (GraphPad Prism, La Jolla, Calif.). Neurohistologic analyses are performed using ANOVA. All comparisons were considered significant at level of P<0.05.

[3] = system: PKCδVIII and Bcl2 expressed in SH-SY5Y neuronal cells; test: Western blot of PKCδVIII and Bcl2 in SH-SY5Y neuronal cells; type: cell-based, human; conditions: for effect on G-CSF-induced Bcl2 expression / effect on G-CSF-induced PKCδVIII expression / Bcl2 protein expression / PKCδVIII protein expression: SH-SY5Y, 24 h; for effect on G-CSF-induced Bcl2 expression / effect on G-CSF-induced PKCδVIII expression: co-incubation with G-CSF 100 ng/mL; for Bcl2 protein expression / PKCδVIII protein expression: compound alone, three concentrations; for agonist/antagonist profile at the G-CSF receptor: neuronal cell line (SH-SY5Y)
Method: as §1, with “THP-1 cells or SH-SY5Y cells 3×10^6 cells in 5 mL media in a 25 cm^2 flask were treated with 100 ng/mL G-CSF or three different concentrations of the test drug for 24 h. In addition,” for “In addition,”
as §2

[4] = molecular target: T2, G-CSF receptor on neuronal (SH-SY5Y) cells; test: Saturation binding of [125I]-G-CSF to its receptor on SH-SY5Y cells; conditions: [125I]-G-CSF specific binding
Text: (§3) Two human cell lines were chosen for cell culture studies. One was a human monocyte cell line that is representative of the peripheral immune system, THP-1, which grows in suspension. The other cell line was a human neuroblastoma cell line (SH-SY5Y) which is a mixed cell line although only adherent cells were utilized (Xie, H. R., et al. Chin. Med. J. (Engl) 2010, 123, 1086-92). Both cell lines are known to express the G-CSF-R. Both cell lines were purchased from ATCC (Manassas, Va.). THP-1 cells were cultured in RPMI-1640 medium supplemented with 10% fetal bovine serum (FBS) plus 1% penicillin-streptomycin (ATCC, Manassas, Va.) in a humidified atmosphere of 5% CO2 at 37° C. […]
(§4) Binding of [^125I]-G-CSF was measured using previously described method (Kondo, S., et al. Eur. J. Haematol. 1991, 46, 223-30) with some modifications (Pennington, A., et al. Alzheimer's Disease and Parkinsonism 2013, 3, 121). […] Nonspecific binding of [^125I]-G-CSF was measured by incubations in the presence of a 100-fold molar excess of unlabeled G-CSF. […] Bound and free ligand activities were counted after cutting tubes in two pieces and placing the tips and tops, respectively into separate scintillation vials. […] The specific binding was determined from the amount of bound [^125I]-G-CSF blocked by competition with excess unlabeled G-CSF. […]

[5] = molecular target: T3, G-CSF receptor on monocytic (THP-1) cells; test: Saturation binding of [125I]-G-CSF to its receptor on THP-1 cells; conditions: [125I]-G-CSF specific binding
Text: as §3, §4

Molecule	IC50 [1] [nM]	effect on G-CSF-induced Bcl2 expression [2]	effect on G-CSF-induced PKCδVIII expression [2]	Bcl2 protein expression [2]	PKCδVIII protein expression [2]	agonist/antagonist profile at the G-CSF receptor [2]	effect on G-CSF-induced Bcl2 expression [3]	effect on G-CSF-induced PKCδVIII expression [3]	Bcl2 protein expression [3]	PKCδVIII protein expression [3]	agonist/antagonist profile at the G-CSF receptor [3]	Bmax [4] [pM]	Hill Coefficient [4]	Bmax [5] [pM]	Hill Coefficient [5]
NC1=Nc2nc3ccccc3n2C(c2c[nH]nc2-c2cccc([N+](=O)[O-])c2)N1 (centres unmarked) [Compound 10, 4-[3-(3-nitrophenyl)-1H-pyrazol-4-yl]-3,4-dihydro[1,3,5]triazino[1,2-a]-benzimidazol-2-amine]	2.3	blocking the effects of G-CSF on Bcl2 expression; also recorded: at the lowest concentration antagonized the effects of G-CSF	did not antagonize the effects on PKCδVIII protein expression; also recorded: at the lowest concentration antagonized the effects of G-CSF	significantly elevating expression of both Bcl2 and PKCδVIII	significantly elevating expression of both Bcl2 and PKCδVIII	mixed agonist/antagonist	did not block the actions of G-CSF	did not block the actions of G-CSF	increased expression of both PKCδVIII and Bcl2 protein to levels equivalent to G-CSF alone	increased expression of both PKCδVIII and Bcl2 protein to levels equivalent to G-CSF alone	appear to act as agonists at the G-CSF receptor; also recorded: appeared to function as a G-CSF agonist	–	–	–	–
COc1ccc2[nH]cc(C3NC(N)=Nc4nc5ccccc5n43)c2c1 (centres unmarked) [Compound 6, 4-(5-methoxy-1H-indol-3-yl)-3,4-dihydro-[1,3,5]-triazino-[1,2a]benzimidazol-2-amine]	13.7	blocked the increase in Bcl2 and PKCδVIII protein expression	blocked the increase in Bcl2 and PKCδVIII protein expression	increased expression of Bcl2	but not PKCδVIII at all 3 concentrations	mixed agonist/antagonist	did not change the expression of either Bcl2 or PKCδVIII	did not change the expression of either Bcl2 or PKCδVIII	significantly increased Bcl2 protein expression at the low and intermediate, but not the high concentration; also recorded: at the highest concentration increases PKCδVIII without changing Bcl2 expression	stimulated PKCδVIII protein expression to levels equivalent to G-CSF alone; also recorded: at the highest concentration increases PKCδVIII	did not act as an antagonist of G-CSF action; also recorded: appear to act as agonists at the G-CSF receptor	–	–	–	–
[^125I]-G-CSF: radio-labeled G-CSF (specific activity 46.55 TBq/mmol) purchased from Perkin Elmer (protein, 125I radiolabel (specific activity 46.55 TBq/mmol); labelled residue not stated) TPLGPASSLPQSFLLKCLEQVRKIQGDGAALQEKLVSECATYKLCHPEELVLLGHSLGIPWAPLSSCPSQALQLAGCLSQLHSGLFLYQGLLQALEGISPELGPTLDTLQLDVADFATTIWQQMEELGMAPALQPTQGAMPAFASAFQRRAGGVLVASHLQSFLEVSYRVLRHLAQP	–	–	–	–	–	–	–	–	–	–	–	4826	2.7 and 2.71	901	1.19
